Reference: US20210253635A1, “PEPTIDIC PROTEIN KINASE C INHIBITORS AND USES THEREOF” (UNIVERSITE DE GENEVE, priority 2018, published 2021)
Ends that are not written are not given here. * marks the point of attachment. Myristoyl = CCCCCCCCCCCCCC(=O)*

Columns and labels:
[1] = test system: nasal epithelial monolayers (Mucilair human primary nasal epithelial cells); test: FITC insulin permeabilization (apical to basolateral) across epithelial monolayer; assay type: cell-based; conditions: peptide 50 μM, apical side, compared to control (vehicle), FIG. 2
Excerpt: To assess the potential effects of peptides of the invention on the permeabilization of therapeutic molecules, FITC Insulin (Sigma-Aldrich, Buchs SG, Switzerland) is used as a model for assessing paracellular drug transport (apical to basolateral) across the epithelial monolayer.
Mucilair™ human primary nasal and bronchial epithelial cells (Epithelix sarl, Geneva, Switzerland) and Caco-2 human intestinal epithelial cells are used (Huang et. al., 2013, Toxicol. in Vitro 27: 1151-1156).
Before each experiment, the culture medium is removed from each compartment and the monolayer is washed once with 200 μl of saline (0.9%) and once with warm Hanks' Balanced Salt Solution (HBSS) (37° C.). In the basolateral compartment, 600 μL of pre-warmed HBSS is placed and the cells are returned to the incubator at 37° C. for 30 minutes to equilibrate. After equilibration, the peptides of the invention and the paracellular marker (FITC insulin) are applied to the apical side of an epithelial monolayer. Peptides P4 (SEQ ID NO: 2) and P3 (SEQ ID NO: 4) according to the invention are tested in comparison with a comparative peptide CP4 (SEQ ID NO: 3).
All peptides are used at a final concentration of 50 μM. The vehicle is used as a control (CTRL). The FD solution is added to the apical compartment to make a final volume of 200 μl. […] The fluorescence of FD is measured in black 96-well plates using a fluorescence plate reader (BioTek Synergy Mx plate reader, BioTek Instruments GmbH, Lucerne, Switzerland), using excitation and emission wavelengths of 485 and 520 nm, respectively. Cumulative release (ng) corresponds to the actual amount of drug released cumulatively and corresponds to the amount in the suspension medium at any time plus the amount of the drug lost during each sampling.

[2] = test system: non-small cell lung cancer (NSCLC); conditions: NSCLC patients, compared to chemotherapies, before resistance appears; cited from earlier work
[3] = test system: Mucilair human primary nasal epithelial cells; test: Trans-epithelial electrical resistance (TEER), epithelial integrity; assay type: cell-based; conditions: peptide 100 μM, apical, FIG. 1
Procedure: Trans-epithelial electrical resistance (TEER): After addition of 200 μl of culture medium to the apical compartment of the tissue cultures, resistance is measured across cultures with an EVOMX volt-ohm-meter (World Precision Instruments UK, Stevenage) in triplicate for each time point. The TEER values (Ω) is converted normalized by using the following formula: TEER (Ω cm^2)=(resistance value (Ω)−100 (Ω))×0.33 (cm^2), where 100Ω is the resistance of the membrane and 0.33 cm^2 is the total surface of the epithelium.
To assess the potential effects of peptides of the invention on the epithelial integrity, transepithelial electrical resistance in the presence of a peptide of the invention is measured. Trans-epithelial electrical resistance (TEER) was measured as in Example 2 except that volt-ohm-meter was equipped with STX-2 chopstick electrodes (WPI, Sarasota, Fla., USA). Mucilair™ human primary nasal epithelial cells were used as in Example 2 (from single donor; EP01-Batch number MD069201). The peptide P4 (SEQ ID NO: 2) and comparative peptide […] both at a concentration of 100 μM in Mucilair™ medium and control solution (i.e., 50 μl of saline+50 μl of Mucilair™ medium) were administered to the apical compartment of the tissue cultures at the begging of the experiment (t=0) and the measurements were made after 20, 40, 60 and 80 minutes (t=20 min, t=40 min, t=60 min and t=80 min) of the incubation. All TEER values are expressed as percentage relative to control (the baseline value was 242 Ω*cm^2). All the experiments were performed at least 2 times (test 1 and 2).

Which “permeabilization of FITC-conjugated insulin (cumulative release)” value [1] does the source give for “Myr-AKRWR (Myristoyl-AKRWR) [CP4, comparative peptide, L-amino acid version of P4, reference compound]” here?
Its value is “slightly increased the permeabilization”.

With “Myr-D-Ala D-Arg D-Arg D-Trp D-Arg [Peptide P3]” as the molecule, how does the “permeabilization of FITC-conjugated insulin (cumulative release)” value [1] read?
Its value is “increased the permeabilization of insulin FITC to a much larger extend than the control peptide CP4”.

Which “progression free survival (PFS)” value [2] does the source give for `COc1cc2ncnc(Nc3ccc(F)c(Cl)c3)c2cc1OCCCN1CCOCC1` [Gefitinib, N-(3-Chloro-4-fluorophenyl)-7-methoxy-6-(3-morpholinopropoxy) quinazolin-4-amine] here?
Its value is 7.7-12.9 months.

Which results are given for “Myr-D-Ala D-Lys D-Arg D-Trp D-Arg [Peptide P4]”?
permeabilization of FITC-conjugated insulin (cumulative release) [1]: increased the permeabilization of insulin FITC to a much larger extend than the control peptide CP4; TEER values (percentage relative to control) ([3]; t=20 min): decreased TEER values as compared to control solution and comparative peptide P4 (CP4); TEER values (percentage relative to control) ([3]; t=40 min and t=60 min): this effect persisted; TEER values (percentage relative to control) ([3]; t=80 min): TEER values increased as compared to values measured at previous time points
